Values after ≈ are worked out from the molar mass of the structure shown. Active and inactive are the calls of the source. The calls are words filed in the database; no cut-off is given here.
Test system: Bacillus pumilus
Assay: Antibacterial activity against penicillin-susceptible Bacillus pumilus CMCC63202 assessed as inhibition of bacterial growth incubated for 20 hrs by CLSI protocol based microdilution method
Format: functional
Settings: not given

Row | SMILES | MIC
1 | C=C1OC(=O)C(CNC(=O)Cc2ccccc2)=C1c1ccc(F)cc1 | > 512 µg/mL
2 | C=C1OC(=O)C(CNC(=O)c2ccc(C)cc2)=C1c1cccc(Cl)c1 | > 512 µg/mL
3 | C=C1OC(=O)C(CNC(=O)CCCCCCCCCCC)=C1c1ccc(F)cc1 | > 512 µg/mL
4 | C=C1OC(=O)C(CNC(=O)c2ccc(Cl)cc2)=C1c1ccc(F)cc1 | > 512 µg/mL
5 | C=C1OC(=O)C(CNC(=O)c2ccc(C)cc2)=C1c1ccc(OC)cc1 | > 512 µg/mL
6 | C=C1C(c2ccc(F)cc2)=C(CNC(=O)c2ccc(C)cc2)C(=O)N1CCCCC | 512 µg/mL (≈ 1260 µM)

Test system: not listed separately
Assay: Inhibition of quorum sensing system in Pseudomonas aeruginosa PAO1 assessed as inhibition of protease activity at 102.4 ug/ml incubated for 24 hrs by absorbance based assay
Settings: dose 102.4 µg/ml

Row | SMILES | inhibition
7 | C=C1OC(=O)C(CNC(=O)c2ccc(C)cc2)=C1c1cccc(Cl)c1 | Active
8 | C=C1OC(=O)C(CNC(=O)CCCCCCCCCCC)=C1c1ccc(F)cc1 | Active
9 | C=C1OC(=O)C(CNC(=O)c2ccc(Cl)cc2)=C1c1ccc(F)cc1 | 8.6%
10 | C=C1OC(=O)C(CNC(=O)c2ccc(C)cc2)=C1c1ccc(OC)cc1 | Active

Test system: Pseudomonas aeruginosa
Assay: Inhibition of biofilm formation in Pseudomonas aeruginosa PAO1 at 32 ug/ml incubated for 20 hrs by crystal violet staining based analysis
Format: functional
Settings: dose 32.0 µg/ml

Row | SMILES | inhibition
11 | C=C1OC(=O)C(CNC(=O)c2ccc(C)cc2)=C1c1cccc(Cl)c1 | inactive
12 | C=C1OC(=O)C(CNC(=O)CCCCCCCCCCC)=C1c1ccc(F)cc1 | Active
13 | C=C1OC(=O)C(CNC(=O)c2ccc(Cl)cc2)=C1c1ccc(F)cc1 | Active
14 | C=C1OC(=O)C(CNC(=O)c2ccc(C)cc2)=C1c1ccc(OC)cc1 | inactive

Test system: Pseudomonas aeruginosa
Assay: Antibacterial activity against penicillin-susceptible Pseudomonas aeruginosa ATCC27853 assessed as inhibition of bacterial growth incubated for 20 hrs by CLSI protocol based microdilution method
Format: functional
Settings: not given

Row | SMILES | MIC
15 | C=C1OC(=O)C(CNC(=O)Cc2ccccc2)=C1c1ccc(F)cc1 | > 512 µg/mL
16 | C=C1OC(=O)C(CNC(=O)c2ccc(C)cc2)=C1c1cccc(Cl)c1 | > 512 µg/mL
17 | C=C1OC(=O)C(CNC(=O)CCCCCCCCCCC)=C1c1ccc(F)cc1 | > 512 µg/mL
18 | C=C1OC(=O)C(CNC(=O)c2ccc(Cl)cc2)=C1c1ccc(F)cc1 | > 512 µg/mL
19 | C=C1OC(=O)C(CNC(=O)c2ccc(C)cc2)=C1c1ccc(OC)cc1 | > 512 µg/mL
20 | C=C1C(c2ccc(F)cc2)=C(CNC(=O)c2ccc(C)cc2)C(=O)N1CCCCC | > 512 µg/mL

Test system: Pseudomonas aeruginosa
Assay: Antibacterial activity against wild type Pseudomonas aeruginosa […] CGMCC1.12483 assessed as inhibition of bacterial growth incubated for 20 hrs by CLSI protocol based microdilution method
Format: functional
Settings: not given

Row | SMILES | MIC
21 | C=C1OC(=O)C(CNC(=O)Cc2ccccc2)=C1c1ccc(F)cc1 | > 512 µg/mL
22 | C=C1OC(=O)C(CNC(=O)c2ccc(C)cc2)=C1c1cccc(Cl)c1 | > 512 µg/mL
23 | C=C1OC(=O)C(CNC(=O)CCCCCCCCCCC)=C1c1ccc(F)cc1 | > 512 µg/mL
24 | C=C1OC(=O)C(CNC(=O)c2ccc(Cl)cc2)=C1c1ccc(F)cc1 | > 512 µg/mL
25 | C=C1OC(=O)C(CNC(=O)c2ccc(C)cc2)=C1c1ccc(OC)cc1 | > 512 µg/mL
26 | C=C1C(c2ccc(F)cc2)=C(CNC(=O)c2ccc(C)cc2)C(=O)N1CCCCC | 512 µg/mL (≈ 1260 µM)

Test system: Escherichia coli
Assay: Antibacterial activity against penicillin-susceptible Escherichia coli ATCC25922 assessed as inhibition of bacterial growth incubated for 20 hrs by CLSI protocol based microdilution method
Format: functional
Settings: not given

Row | SMILES | MIC
27 | C=C1OC(=O)C(CNC(=O)Cc2ccccc2)=C1c1ccc(F)cc1 | > 512 µg/mL
28 | C=C1OC(=O)C(CNC(=O)c2ccc(C)cc2)=C1c1cccc(Cl)c1 | > 512 µg/mL
29 | C=C1OC(=O)C(CNC(=O)CCCCCCCCCCC)=C1c1ccc(F)cc1 | > 512 µg/mL
30 | C=C1OC(=O)C(CNC(=O)c2ccc(Cl)cc2)=C1c1ccc(F)cc1 | > 512 µg/mL
31 | C=C1OC(=O)C(CNC(=O)c2ccc(C)cc2)=C1c1ccc(OC)cc1 | > 512 µg/mL
32 | C=C1C(c2ccc(F)cc2)=C(CNC(=O)c2ccc(C)cc2)C(=O)N1CCCCC | > 512 µg/mL

Test system: Pseudomonas aeruginosa
Assay: Synergistic antibacterial activity against Pseudomonas aeruginosa 27853 assessed as inhibition of bacterial growth incubated for 24 hrs in the presence of Clarithromycin by absorbance based microplate reader analysis
Format: functional, organism-based
Settings: dose 1-256 µg/ml

Row | SMILES | Activity
33 | C=C1OC(=O)C(CNC(=O)c2ccc(Cl)cc2)=C1c1ccc(F)cc1 | Dose-Dependent Effect

Test system: not listed separately
Assay: Inhibition of quorum sensing system in Pseudomonas aeruginosa PAO1 assessed as inhibition of pyocyanin production at 102.4 ug/ml incubated for 18 hrs by absorbance based assay
Settings: dose 102.4 µg/ml

Row | SMILES | inhibition
34 | C=C1OC(=O)C(CNC(=O)Cc2ccccc2)=C1c1ccc(F)cc1 | inactive
35 | C=C1OC(=O)C(CNC(=O)c2ccc(C)cc2)=C1c1cccc(Cl)c1 | Active
36 | C=C1OC(=O)C(CNC(=O)CCCCCCCCCCC)=C1c1ccc(F)cc1 | 36.5%
37 | C=C1OC(=O)C(CNC(=O)c2ccc(Cl)cc2)=C1c1ccc(F)cc1 | Active
38 | C=C1OC(=O)C(CNC(=O)c2ccc(C)cc2)=C1c1ccc(OC)cc1 | Active

Test system: not listed separately
Assay: Inhibition of quorum sensing system in Pseudomonas aeruginosa PAO1 assessed as inhibition of rhamnolipid production at 102.4 ug/ml incubated for 24 hrs by absorbance based assay
Settings: dose 102.4 µg/ml

Row | SMILES | inhibition
39 | C=C1OC(=O)C(CNC(=O)c2ccc(C)cc2)=C1c1cccc(Cl)c1 | Active
40 | C=C1OC(=O)C(CNC(=O)CCCCCCCCCCC)=C1c1ccc(F)cc1 | Active
41 | C=C1OC(=O)C(CNC(=O)c2ccc(Cl)cc2)=C1c1ccc(F)cc1 | 47.3%
42 | C=C1OC(=O)C(CNC(=O)c2ccc(C)cc2)=C1c1ccc(OC)cc1 | Active

Test system: Pseudomonas aeruginosa
Assay: Antibacterial activity against Pseudomonas aeruginosa PAO1 assessed as inhibition of bacterial growth at 256 ug/ml measured after 25 hrs by absorbance based assay
Format: functional, organism-based
Settings: dose 256.0 µg/ml

Row | SMILES | Activity
43 | C=C1OC(=O)C(CNC(=O)c2ccc(C)cc2)=C1c1cccc(Cl)c1 | inactive
44 | C=C1OC(=O)C(CNC(=O)CCCCCCCCCCC)=C1c1ccc(F)cc1 | inactive
45 | C=C1OC(=O)C(CNC(=O)c2ccc(Cl)cc2)=C1c1ccc(F)cc1 | inactive
46 | C=C1OC(=O)C(CNC(=O)c2ccc(C)cc2)=C1c1ccc(OC)cc1 | inactive

Test system: Pseudomonas aeruginosa
Assay: Synergistic antibacterial activity against Pseudomonas aeruginosa PAO1 assessed as inhibition of bacterial growth at 1 to 256 ug/ml incubated for 24 hrs in the presence of Clarithromycin by absorbance based microplate reader analysis
Format: functional, organism-based
Settings: dose 1-256 µg/ml

Row | SMILES | Activity
47 | C=C1OC(=O)C(CNC(=O)c2ccc(Cl)cc2)=C1c1ccc(F)cc1 | Active

Test system: Pseudomonas aeruginosa
Assay: Antibacterial activity against Pseudomonas aeruginosa 27853 assessed as inhibition of bacterial growth at 256 ug/ml measured after 25 hrs by absorbance based assay
Format: functional, organism-based
Settings: dose 256.0 µg/ml

Row | SMILES | Activity
48 | C=C1OC(=O)C(CNC(=O)c2ccc(C)cc2)=C1c1cccc(Cl)c1 | inactive
49 | C=C1OC(=O)C(CNC(=O)CCCCCCCCCCC)=C1c1ccc(F)cc1 | inactive
50 | C=C1OC(=O)C(CNC(=O)c2ccc(Cl)cc2)=C1c1ccc(F)cc1 | inactive
51 | C=C1OC(=O)C(CNC(=O)c2ccc(C)cc2)=C1c1ccc(OC)cc1 | inactive

Test system: Staphylococcus aureus
Assay: Antibacterial activity against erthromycin-susceptible Staphylococcus aureus ATCC25923 assessed as inhibition of bacterial growth incubated for 20 hrs by CLSI protocol based microdilution method
Format: functional
Settings: not given

Row | SMILES | MIC
52 | C=C1OC(=O)C(CNC(=O)Cc2ccccc2)=C1c1ccc(F)cc1 | > 512 µg/mL
53 | C=C1OC(=O)C(CNC(=O)c2ccc(C)cc2)=C1c1cccc(Cl)c1 | > 512 µg/mL
54 | C=C1OC(=O)C(CNC(=O)CCCCCCCCCCC)=C1c1ccc(F)cc1 | > 512 µg/mL
55 | C=C1OC(=O)C(CNC(=O)c2ccc(Cl)cc2)=C1c1ccc(F)cc1 | > 512 µg/mL
56 | C=C1OC(=O)C(CNC(=O)c2ccc(C)cc2)=C1c1ccc(OC)cc1 | > 512 µg/mL
57 | C=C1C(c2ccc(F)cc2)=C(CNC(=O)c2ccc(C)cc2)C(=O)N1CCCCC | > 512 µg/mL

Test system: Pseudomonas aeruginosa
Assay: Synergistic antibacterial activity against Pseudomonas aeruginosa PAO1 assessed as inhibition of bacterial growth at 1 to 256 ug/ml incubated for 24 hrs in the presence of ciprofloxacin by absorbance based microplate reader analysis
Format: functional, organism-based
Settings: dose 1-256 µg/ml

Row | SMILES | Activity
58 | C=C1OC(=O)C(CNC(=O)c2ccc(Cl)cc2)=C1c1ccc(F)cc1 | Active

Test system: Staphylococcus aureus
Assay: Antibacterial activity against methicillin-resistant Staphylococcus aureus ATCC43300 assessed as inhibition of bacterial growth incubated for 20 hrs by CLSI protocol based microdilution method
Format: functional
Settings: not given

Row | SMILES | MIC
59 | C=C1OC(=O)C(CNC(=O)Cc2ccccc2)=C1c1ccc(F)cc1 | > 512 µg/mL
60 | C=C1OC(=O)C(CNC(=O)c2ccc(C)cc2)=C1c1cccc(Cl)c1 | > 512 µg/mL
61 | C=C1OC(=O)C(CNC(=O)CCCCCCCCCCC)=C1c1ccc(F)cc1 | > 512 µg/mL
62 | C=C1OC(=O)C(CNC(=O)c2ccc(Cl)cc2)=C1c1ccc(F)cc1 | > 512 µg/mL
63 | C=C1OC(=O)C(CNC(=O)c2ccc(C)cc2)=C1c1ccc(OC)cc1 | > 512 µg/mL
64 | C=C1C(c2ccc(F)cc2)=C(CNC(=O)c2ccc(C)cc2)C(=O)N1CCCCC | > 512 µg/mL

Test system: not listed separately
Assay: Hemolytic activity in mouse red blood cells assessed as hemolysis rate at 512 ug/ml incubated for 1 hrs by microplate reader analysis relative to control
Format: toxicity, cell-based, Erythrocyte
Settings: red blood cells (erythrocytes), at 512 µg/mL, read-out: Activity

Row | SMILES | hemolysis at 1 h, 512 ug/ml
65 | C=C1OC(=O)C(CNC(=O)c2ccc(Cl)cc2)=C1c1ccc(F)cc1 | > 2.5%

Test system: Pseudomonas aeruginosa
Assay: Synergistic antibacterial activity against Pseudomonas aeruginosa 27853 assessed as inhibition of bacterial growth at 1 to 256 ug/ml incubated for 24 hrs in the presence of Ciprofloxacin by absorbance based microplate reader analysis
Format: functional, organism-based
Settings: dose 1-256 µg/ml

Row | SMILES | Activity
66 | C=C1OC(=O)C(CNC(=O)c2ccc(Cl)cc2)=C1c1ccc(F)cc1 | Active

Test system: Bacillus subtilis
Assay: Antibacterial activity against penicillin-susceptible Bacillus subtilis ATCC9372 assessed as inhibition of bacterial growth incubated for 20 hrs by CLSI protocol based microdilution method
Format: functional
Settings: not given

Row | SMILES | MIC
67 | C=C1OC(=O)C(CNC(=O)Cc2ccccc2)=C1c1ccc(F)cc1 | > 512 µg/mL
68 | C=C1OC(=O)C(CNC(=O)c2ccc(C)cc2)=C1c1cccc(Cl)c1 | > 512 µg/mL
69 | C=C1OC(=O)C(CNC(=O)CCCCCCCCCCC)=C1c1ccc(F)cc1 | > 512 µg/mL
70 | C=C1OC(=O)C(CNC(=O)c2ccc(Cl)cc2)=C1c1ccc(F)cc1 | > 512 µg/mL
71 | C=C1OC(=O)C(CNC(=O)c2ccc(C)cc2)=C1c1ccc(OC)cc1 | > 512 µg/mL
72 | C=C1C(c2ccc(F)cc2)=C(CNC(=O)c2ccc(C)cc2)C(=O)N1CCCCC | > 512 µg/mL

From ChEMBL document CHEMBL5331108, “Design and Synthesis of 4-Fluorophenyl-5-methylene-2(5H)-furanone Derivatives as Potent Quorum Sensing Inhibitors” (J Med Chem, 2023)
